Experimental data published in patent US20040157911A1, “Storage-stable and bio-stable formulations of ace inhibitors, and methods for preparation thereof” (priority 1999, published 2004).
Where a name gives a salt, the structure may show the parent alone.

Test: Dispersion time of enalapril maleate in alcohol/water liquids
Format: physicochemical
Settings: for Dispersion Time: 50 g in 200 mL, 200 rpm
Method: Enalapril maleate (50 grams) was added to 200 mL of liquid. The liquid ranged from 100% alcohol/0% water to 0% alcohol/100% water (see Table 1). The solutions were stirred at 200 rpm at room temperature using a Lightning Mixer (General Signal Controls, Rochester, N.Y.) with the mixing blade 1 cm from the bottom of the beaker. Enalapril maleate was considered “dispersed” when all of the drug powder was wetted and had become immersed in the liquid.

Time to full dispersion in alcohol (20 mg/ud in SD3A denatured alcohol (50 mg/ud), stirring at 500 rpm (preparation of Formula I)): less than 10 seconds
Dispersion Time (25%/75% alcohol/water, full value 1 minute, 15 seconds (seconds in next row)): 60 s
Dispersion Time (50%/50% alcohol/water, room temperature): 45 s
Dispersion Time (75%/25% alcohol/water, room temperature): 30 s
Dispersion Time (85%/15% alcohol/water, room temperature): 28 s
Dispersion Time (100%/0% alcohol/water, room temperature): 27 s
SMILES: CCOC(=O)[C@H](CCc1ccccc1)N[C@@H](C)C(=O)N1CCC[C@H]1C(=O)O [enalapril maleate]
